One test concerns cancer. The experiment in a line: Growth of cancer in treated cancer patients (summary of empirical findings). In kind it is in vivo, human. To be noted: Cytomel at 5-40 μg/day. From the text: (§1) These clinical findings correlated with the subject being at a state of moderate hypothyroidism, as indicated by the low levels (below normal) of T4 in the subject's blood and above normal values of TSH; • combined treatment of cancer subjects with an anti-thyroid agent, such as methimazole or PTU, in combination with Cytomel®, slowed tumor growth and/or enhanced sensitivity of the tumor cells to chemotherapy and/or radiation therapy.

The nature of test [1]: T4 / FT4 levels in treated cancer patients (summary of empirical findings). In kind it is in vivo, human. To be noted: Cytomel at 5-40 μg/day.
Excerpt: as §1

Test [2] can be described thus: Free T4 / TSH monitoring under hypothyroid induction therapy, glioblastoma subject (Example 1). In kind it is in vivo, human. To be noted: Example 1 GBM subject; PTU 600 mg/day in parallel with temozolomide; after about 12 weeks of treatment.
Method: Shortly thereafter carboplatin treatment (7 mg/kg) was initiated along with continuation of the thyroid reduction therapy, using 600 mg/day PTU.
In order to achieve hypothyroxinemia, in addition to PTU, 5 μg of triiodotionine (T3) was added 3 times a day in order to inhibit TSH and reduce thyroxine level.
Test [3] has as its system grade IV glioblastoma (GBM). The test can be described thus: Brain MRI tumor response, glioblastoma subject (Example 1). In kind it is in vivo, human. To be noted: Example 1, tumor recurrence about two years later; regimen as labelled.
Test [4] has as its system malignant fibrous histiocytoma (MFH) of the left pulmonary vein. The experiment in a line: Tumor size / mass, subject with malignant fibrous histiocytoma (Example 2). The conditions noted are these: methimazole 40 mg/day with palliative radiation (46Gy), after 2 months.
Test [5] is described as follows: Free T4 level, subject with malignant fibrous histiocytoma (Example 2). The conditions noted are these: methimazole 40 mg/day with palliative radiation (46Gy), after 2 months. In kind it is in vivo, human. As to the method:
The subject was maintained on Cytomel® 5 μg, three times a day and methimazole (reduced to 30 mg once a day).

Molecules are shown by their SMILES.

Turning to `N[C@@H](Cc1cc(I)c(Oc2ccc(O)c(I)c2)c(I)c1)C(=O)O` [Cytomel®, Liothyronine sodium], the “growth of the cancer” value in the test on cancer is reported as “slows the growth of the cancer”. In test [1], the T4 levels result is given as “decrease in T4 levels”.

As to `CCCc1cc(=O)[nH]c(=S)[nH]1` [PTU, propylthiouracil], the T4 levels entry in test [2] was “slightly reduced”.

`N.N.O=C([O-])C1(C(=O)[O-])CCC1.[Pt+2]` [carboplatin]: the “tumor response on MRI at recurrence” value in test [3] is listed as “no response”.

For `Cn1cc[nH]c1=S` [methimazole], the tumor size entry in test [4] was “no change”. The “free T4 level” value in test [5] is on record as “no change”.

Values taken from patent US10398789B2, “Methods, compositions and kits for providing a therapeutic treatment” (priority 2010, dated 2019).
